This note sets out measurements from patent US11753407B2, “Compounds for treating spinal muscular atrophy” (PTC Therapeutics, Inc., priority 2012, dated 2023).

Assay [1] concerns human SMN1 minigene mRNA (SMN1-A minigene) in HEK293H cells. The assay is described as follows: Human SMN1 minigene mRNA end-point semi-quantitative RT-PCR splicing assay in cultured cells. It is filed as cell-based. As to conditions: HEK293H cells transfected with SMN1-A minigene, increasing concentrations, 7 hours, end-point RT-PCR (FIG. 17). The text has this:
The RT-PCR assay is used to visualize and quantify the levels of the human SMN1 minigene full length and Δ7 mRNA in primary cells and cell lines expressing the human SMN1 minigene construct treated with a test compound.
Using the procedure for the preparation of the SMN2 minigene construct described in Biological Example 1, the SMN1 version of the minigene is generated by replacing the sixth nucleotide of exon 7 (a thymine residue) of the SMN2-A minigene construct to cytosine using site-directed mutagenesis. Thus, similar to the SMN2-A minigene construct, the SMN1 minigene construct has a single adenine residue inserted after nucleic residue 48 of exon 7. The SMN1 minigene construct is referred to as SMN1-A.
Protocol. HEK293H cells (10,000 cells/well/199 μL) were transfected, using FuGENE-6 reagent, in a 96-well plate with 15 ng of the SMN1-A minigene reporter plasmid per well. Cells were incubated for 24 hours following transfection. Test compounds were serially diluted 3.16-fold in 100% DMSO to generate a 7-point concentration curve. A solution of test compound (1 μL, 200× in DMSO) was added to each test well. 1 μL DMSO was added to each control well. The plate was incubated for 7 hours in a cell culture incubator (37° C., 5% CO2, 100% relative humidity). The cells were then lysed in Cells-To-Ct lysis buffer and the lysates were stored at −80° C.
Two SMN spliced mRNA are generated from the SMN1 minigene. The term “SMN1 minigene FL” refers to the first spliced product containing exon 7, corresponding to full length SMN1 mRNA. The term “SMN1 minigene Δ7” refers to the second product lacking exon 7.
SMN minigene FL and Δ7 mRNA are amplified using the primers in Table 11. Primer SMN Forward C (SEQ ID NO. 11) hybridizes to a nucleotide sequence in exon 6 (nucleotide 43 to nucleotide 63), primer SMN Reverse A (SEQ ID NO. 2) hybridizes to a nucleotide sequence in the coding sequence of Firefly luciferase. The combination of these two oligonucleotides detects only SMN1 or SMN2 minigenes (RT-PCR) and will not detect endogenous SMN1 or SMN2 genes. Since the HEK293H cells used in Example 16 were transfected with only the human SMN1 minigene, RT-PCR can visualize and quantify only SMN1 minigene full-length and SMN1 minigene Δ7 mRNA.
To synthesize cDNA, 5 μL of lysate, 4 μL of 5× iScript reaction mix, 1 μL of reverse transcriptase, and 10 μL of water are combined and incubated 5 min at 25° C. followed by 30 min at 42° C., followed by 5 min at 85° C. The cDNA solution is stored at −20° C.
To perform endpoint PCR, 5 μL of cDNA, 0.2 μL of 100 μM forward primer, 0.2 μL of 100 μM reverse primer, and 22.5 μL of polymerase super mix are combined in a 96 well semiskirted PCR plate. PCR is carried out at the following temperatures for the indicated time: Step 1: 94° C. (2 min), Step 2: 94° C. […]

The subject of the next assay is Smn protein. The experiment in a line: Smn protein levels in tissues of Δ7 SMA mice of the survival study. Format: in vivo. As to conditions: spinal cord. The procedure: Protocol. The tissue samples in Safe-Lock tubes are weighed and the volume of RIPA buffer containing the protease inhibitor cocktail is added based on the weight to volume ratios for each type of tissue: Brain (50 mg/mL), Muscle (50 mg/mL) and Spinal Cord (25 mg/mL).
Tissues are homogenized using the TissueLyzer by bead milling. 5 mm stainless steel beads are added to the sample and shaken vigorously for 5 minutes at 30 Hz in the TissueLyzer. The samples are then centrifuged for 20 minutes at 14,000×g in a microcentrifuge and the homogenates transferred to the PCR plate. […] Fluorescence for each well of the plate at 665 nm and 620 nm is measured on an EnVision multilabel plate reader (Perkin-Elmer). The total protein in the tissue homogenate is measured using the BCA assay according to the manufacturer's protocol.
The normalized fluorescence signal is calculated for each sample, Blank and vehicle control well by dividing the signal at 665 nm by the signal at 620 nm. Normalizing the signal accounts for possible fluorescence quenching due to the matrix effect of the tissue homogenate. […] The ΔF value for each tissue sample well is divided by the total protein quantity (determined using the BCA assay) for that tissue sample. […]
Protocol. […] The number of surviving mice in each group is recorded every day and plotted as a percent of total number of mice. […]

With `COc1ccc(-c2cc(=O)n3cc(N4CCNCC4)ccc3n2)cc1OC` [Cpd 6, 2-(3,4-dimethoxyphenyl)-7-(piperazin-1-yl)-4H-pyrido[1,2-a]pyrimidin-4-one], in assay [1], the “SMN1 minigene FL mRNA” value was “progressively more SMN1 minigene FL mRNA” and the “SMN1 minigene Δ7 mRNA” value is listed as “less SMN1 minigene Δ7 mRNA”. In addition, in the assay on Smn protein (IP 10 mg/kg QD PND 3-30, then orally 30 mg/kg BID PND 31-156, brain, muscle (FIG. 16a)), the Smn protein expression entry was “increased Smn protein expression in brain, spinal cord, and muscle tissues”.
Consider `Cc1cn2nc(-c3cc(=O)n4cc(N5CCN(C)CC5)ccc4n3)cc2c(C)n1` [Cpd 170, 2-(4,6-dimethylpyrazolo[1,5-a]pyrazin-2-yl)-7-(4-methylpiperazin-1-yl)-4H-pyrido[1,2-a]pyrimidin-4-one], for which, in assay [1], the “SMN1 minigene FL mRNA” value was “progressively more SMN1 minigene FL mRNA” and the “SMN1 minigene Δ7 mRNA” value is listed as “less SMN1 minigene Δ7 mRNA”. In addition, the Smn protein expression entry in the assay with Smn protein (IP 3 mg/kg QD PND 3-23, orally 10 mg/kg BID PND 24-88, orally 20 mg/kg QD PND 89-185, brain, muscle (FIG. 16b)) was “increased Smn protein expression in brain, spinal cord, and muscle tissues”.
